Results taken from patent US20130096067A1, “DROSOPHILA TUMOR STEM CELL MODEL AND USES THEREOF” (priority 2011, published 2013).
Structures can show the parent of a compound that is named as a salt. Square brackets hold non-standard residues; d marks the D form. Peptide text beside a SMILES is read from it. Phe(ol) = N[C@H](CO)Cc1ccccc1; Aib = CC(C)(N)C(=O)O

Key:
[1] = system: Raf-1^gof intestinal tumors; experiment: Luciferase screen of FDA-approved (NCI) drugs in 96-well plates, flies with Raf-1^gof intestinal tumors; assay type: in vivo, Drosophila; as to Avg (3 + 6): test concentration or dose not given here; as to Log2 (fold): test concentration or dose not given here
[2] = system: Raf-1^gof intestinal tumors; as to Fold (luciferase activity, fold difference relative to DMSO controls): test concentration or dose not given here; as to Log2 (fold) (luciferase activity, log2 of the fold difference relative to DMSO controls): test concentration or dose not given here
[3] = average of Day 3 and Day 6 fold
[4] = log2 of the Day 3 fold difference in luciferase relative to DMSO controls
[5] = luciferase activity relative to DMSO controls, single dose of drug for three days, 96-well plates
[6] = six-day protocol: single dose for three days, then another dose for three more days

Compound | Avg (3 + 6) [1, 3] [fold] | Log2 (fold) [1, 4] | Day 3 Fold [1, 5] [fold] | Day 6 Fold [1, 6] [fold] | also measured
COc1nc(N)nc2c1ncn2[C@@H]1O[C@H](CO)[C@@H](O)[C@@H]1O [Nelarabine] | 1.194 | 0.166 | 1.122 | 1.266 | 
Nc1nc(Cl)nc2c1ncn2[C@@H]1O[C@H](CO)[C@@H](O)[C@@H]1F [Clofarabine] | 0.868 | −0.164 | 0.893 | 0.843 | 
Cn1nnc2c(C(N)=O)ncn2c1=O [Temozolomide] | 1.138 | −0.032 | 0.978 | 1.298 | 
CCCCCOC(=O)Nc1nc(=O)n([C@@H]2O[C@H](C)[C@@H](O)[C@H]2O)cc1F [Capecitabine] | 1.017 | −0.078 | 0.947 | 1.087 | 
COc1cc2ncnc(Nc3ccc(F)c(Cl)c3)c2cc1OCCCN1CCOCC1 [Gefitinib] |  |  |  |  | Avg (3 + 6) ([1]; in vivo): 0.886 fold
O=C(O)CCCc1ccc(N(CCCl)CCCl)cc1 [Chlorambucil] | 1.022 | 0.175 | 1.129 | 0.915 | 
S=c1nc[nH]c2nc[nH]c12 [Mercaptopurine] | 0.945 | 0.101 | 1.072 | 0.818 | 
COc1cc([C@@H]2c3cc4c(cc3[C@@H](O[C@@H]3O[C@@H]5CO[C@@H](c6cccs6)O[C@H]5[C@H](O)[C@H]3O)[C@H]3COC(=O)[C@H]23)OCO4)cc(OC)c1O [Teniposide] | 0.634 | −0.679 | 0.625 | 0.642 | 
CCC1=C[C@@H]2CN(C1)Cc1c([nH]c3ccccc13)[C@@](C(=O)OC)(c1cc3c(cc1OC)N(C)[C@H]1[C@@](O)(C(=O)OC)[C@H](OC(C)=O)[C@]4(CC)C=CCN5CC[C@]31[C@@H]54)C2 [Vinorelbine tartrate] | 0.761 | −0.190 | 0.877 | 0.645 | 
Cc1ccc(-c2cc(C(F)(F)F)nn2-c2ccc(S(N)(=O)=O)cc2)cc1 [Celecoxib] | 0.755 | −0.565 | 0.676 | 0.834 | 
Cc1nc(Nc2ncc(C(=O)Nc3c(C)cccc3Cl)s2)cc(N2CCN(CCO)CC2)n1 [Dasatinib] | 1.085 | 0.521 | 1.435 | 0.736 | 
Estramustine disodium phosphate |  |  |  |  | Avg (3 + 6) ([1]; in vivo): 0.922 fold; Day 3 Fold ([1]; in vivo): 0.971 fold; Day 6 Fold ([1]; in vivo): 0.872 fold; Log2 (fold) ([1]; in vivo): −0.042
CC(=O)O[C@]1(C(C)=O)CC[C@H]2[C@@H]3C=C(C)C4=CC(=O)CC[C@]4(C)[C@H]3CC[C@@]21C [Megestrol acetate] | 1.219 | 0.418 | 1.336 | 1.101 | 
Nc1ncn([C@H]2C[C@H](O)[C@@H](CO)O2)c(=O)n1 [Decitabine] | 0.569 | −1.077 | 0.474 | 0.663 | 
CCCCC(=O)OCC(=O)[C@]1(O)Cc2c(O)c3c(c(O)c2[C@@H](O[C@H]2C[C@H](NC(=O)C(F)(F)F)[C@H](O)[C@H](C)O2)C1)C(=O)c1c(OC)cccc1C3=O [Valrubicin] | 0.778 | −0.190 | 0.876 | 0.679 | 
O=P1(NCCCl)OCCCN1CCCl (stereo not drawn) [Ifosfamide] | 1.004 | −0.026 | 0.982 | 1.026 | 

Compound | Avg (3 + 6) [1, 3] [fold] | Log2 (fold) [1, 4] | Day 3 Fold [1, 5] [fold] | Day 6 Fold [1, 6] [fold] | also measured
C=C1C[C@@H]2[C@H](CC[C@]3(C)C(=O)CC[C@@H]23)[C@@]2(C)C=CC(=O)C=C12 [Exemestane] | 0.739 | −0.246 | 0.843 | 0.634 | 
COc1c2occc2cc2ccc(=O)oc12 [Methoxsalen] | 0.927 | −0.016 | 0.989 | 0.866 | 
CNC(=O)c1cc(Oc2ccc(NC(=O)Nc3ccc(Cl)c(C(F)(F)F)c3)cc2)ccn1 [Sorafenib] |  |  |  |  | Avg (3 + 6) ([1]; in vivo): 1.046 fold; Day 3 Fold ([1]; in vivo): 0.752 fold; Day 6 Fold ([1]; in vivo): 1.339 fold; Log2 (fold) ([1]; in vivo): −0.410
COc1cccc2c1C(=O)c1c(O)c3c(c(O)c1C2=O)C[C@@](O)(C(=O)CO)C[C@@H]3O[C@H]1C[C@H](N)[C@H](O)[C@H](C)O1 [Doxorubicin HCl] | 1.084 | −0.090 | 0.939 | 1.228 | 
S=P(N1CC1)(N1CC1)N1CC1 [Thiotepa] |  |  |  |  | Avg (3 + 6) ([1]; in vivo): 0.344 fold; Day 3 Fold ([1]; in vivo): 0.353 fold; Day 6 Fold ([1]; in vivo): 0.335 fold; Log2 (fold) ([1]; in vivo): −1.501
O=C1c2c(O)ccc(O)c2C(=O)c2c(NCCNCCO)ccc(NCCNCCO)c21 [Mitoxantrone] | 0.883 | −0.303 | 0.810 | 0.955 | 
CN(N=O)C(=O)N[C@@H](C=O)[C@@H](O)[C@H](O)[C@H](O)CO [Streptozocin] |  |  |  |  | Avg (3 + 6) ([1]; in vivo): 0.943 fold; Day 3 Fold ([1]; in vivo): 1.030 fold; Day 6 Fold ([1]; in vivo): 0.856 fold; Log2 (fold) ([1]; in vivo): 0.043
O=P(O)(O)C(O)(Cn1ccnc1)P(=O)(O)O [Zolendronic acid] | 0.999 | −0.115 | 0.923 | 1.076 | 
O=P1(N(CCCl)CCCl)NCCCO1 (stereo not drawn) [Cyclophosphamide] |  |  |  |  | Avg (3 + 6) ([1]; in vivo): 0.857 fold; Day 3 Fold ([1]; in vivo): 0.982 fold; Day 6 Fold ([1]; in vivo): 0.732 fold; Log2 (fold) ([1]; in vivo): −0.025
C#Cc1cccc(Nc2ncnc3cc(OCCOC)c(OCCOC)cc23)c1 [Erlotinib HCl] |  |  |  |  | Avg (3 + 6) ([1]; in vivo): 0.986 fold; Day 3 Fold ([1]; in vivo): 1.030 fold; Day 6 Fold ([1]; in vivo): 0.942 fold; Log2 (fold) ([1]; in vivo): 0.042
O=NN(CCCl)C(=O)NCCCl [Carmustine] | 0.496 |  |  |  | Day 3 Fold ([1]; po, 72 h): 0.565 fold; Log2 (fold) ([1]; po, 72 h): −0.823
NCC(=O)CCC(=O)O [Aminolevulinic acid] | 0.897 | −0.016 | 0.989 | 0.805 | 
Nc1cccc2c1CN(C1CCC(=O)NC1=O)C2=O (stereo not drawn) [Lenalidomide] | 0.853 | −0.117 | 0.922 | 0.784 | 
Oc1ncnc2[nH]ncc12 [Allopurinol] | 1.997 | 1.281 | 2.430 | 1.565 | 
CC(=O)O[C@@]12CO[C@@H]1C[C@H](O)[C@@]1(C)C(=O)[C@H](O)C3=C(C)[C@@H](OC(=O)[C@H](O)[C@@H](NC(=O)OC(C)(C)C)c4ccccc4)C[C@@](O)([C@@H](OC(=O)c4ccccc4)[C@H]21)C3(C)C [Docetaxel] | 0.514 | −0.887 | 0.541 | 0.487 | 
CC(=O)NC(C)(C)C(=O)N1CCC[C@H]1C(=O)NC(C)(C)C(=O)N[C@@H](C)C(=O)NC(C)(C)C(=O)N[C@@H](C)C(=O)N[C@@H](CCC(N)=O)C(=O)NC(C)(C)C(=O)N[C@H](C(=O)NC(C)(C)C(=O)NCC(=O)N[C@@H](CC(C)C)C(=O)NC(C)(C)C(=O)N1CCC[C@H]1C(=O)N[C@H](C(=O)NC(C)(C)C(=O)NC(C)(C)C(=O)N[C@@H](CCC(=O)O)C(=O)N[C@@H](CCC(N)=O)C(=O)N[C@H](CO)Cc1ccccc1)C(C)C)C(C)C [alamethicin, reference compound] (Ac-[Aib]P[Aib]A[Aib]AQ[Aib]V[Aib]GL[Aib]PV[Aib][Aib]EQ[Phe(ol)]) |  |  |  |  | Fold ([2]; Table 3 summary of hits, Screen ICCB, luciferase relative to DMSO, fed three consecutive days in vials): 0.445 fold; Log2 (fold) (luciferase activity, log2 of the fold difference relative to DMSO controls) ([2]; screen of 480 ICCB compounds in vials, compounds fed to flies with one-day old Raf-1^gof tumors, assessed three days later, esg-Gal4 luciferase): −1.167; Fold (luciferase activity, fold difference relative to DMSO controls) ([2]; screen of 480 ICCB compounds in vials, compounds fed to flies with one-day old Raf-1^gof tumors, assessed three days later, esg-Gal4 luciferase, averaged from multiple wells): 0.445
